Measurements taken from article PMC9321718 (Pharmaceuticals, 2022).
≈ marks a conversion by molar mass, not a printed value. Where “and” joins values, the source holds several entries; their conditions need not be identical. Equal values may be shown once. Read-outs that look alike come from different tables or passages of the source.

What was measured:
E. coli (NCIB 12210) [1] = assay: Agar diffusion test, MIC; format: cell-based, Escherichia coli; details: for antibacterial activity of CD complex: up to 3–5 mg/mL concentration; for MIC: LB pH 7.2, 37 °C, 20 h
Experimental: (§1) The strains used in this study were Escherichia coli (NCIB 12210) and Bacillus subtilis (NCIB 8054) from National Resource Center All-Russian collection of industrial microorganisms SIC “Kurchatov Institute”). The culture was cultivated for 18–20 h at 37 °C to CFU ≈ 5 × 10^6 – 8 × 10^6 (determined by A600) in liquid nutrient medium Luria–Bertani (pH 7.2): E. coli—without stirring, B. subtilis—with stirring 180 rpm.
(§2) The study of the antibacterial effect of Lev and adjuvants was carried out by (a) agar diffusion test and (b) broth micro-dilution method. (a) A measured 500 µL of 100-fold culture dilution was evenly distributed over a solid nutrient medium (LB, pH 7.2) on a Petri dish. After 20 min, agar disks with a diameter of 9 mm were removed from the cups and 50 µL of the test samples were placed in the formed wells at the required concentration in a sterile PBS buffer (see Section 3.3 (2)). After 30 min, Petri dishes were placed in a 37 °C thermostat. After 24 h, the diameters of the growth inhibition zones were measured. Minimum inhibitory concentrations (MICs) are determined as the infimum of multiple concentrations of an antimicrobial that inhibits the visible growth of a microorganism after overnight incubation. (b) According to the standard broth micro-dilution method, 200 µL of the overnight culture (5 × 10^6 CFU) was placed into a 96 micro-titer plate wells. Then 50 µL of tested samples was added. The range of tested Lev concentration was 4–200 ng/mL, adjuvants concentration was in the range of 0.008–2 mg/mL. Optical density measurements at 600 nm were taken at various times (0, 3, and 18 h) to determine the number of cells. The dependence of CFU (determined by A600) on the concentration of Lev, APAB or terpenoid (briefly X) was approximated according to the Boltzmann equation (Origin software): CFU = (control CFU)/(1 + exp(([X] − MIC50)/constant value)). MIC50 and MIC90 are defined as concentrations at which the inhibition of bacterial growth by 50 and 90% is noticeable, respectively. In other words, the concentration at which the ordinate value (CFU) is equal to 50 or 10% of the control sample minus the background.

[2] = Solubility of X in water and in the presence of MCD/HPCD (UV absorbance); details: 22 °C, pH 6.2, water
Experimental: (§3) (3) Solubility of X in water C0 = [Xaq] = A/(ε · l) was determined by UV absorbance after centrifugation of samples (10 min, 10,000× g). l = 1 cm. ε—molar absorbance coefficient (Figure 1C).

[3] = Formation of inclusion complexes with MCD (UV spectroscopy, Hill linearization); format: physicochemical; details: for EE, % / LC, % / n: MCD; for EE, % / LC, %: C(MCD) = 0.01 M, pH 6.2, 22 °C; for n: Xaq + n MCDaq ⇌ X·nMCDaq, 5 mM sodium phosphate buffer pH 6.2, 22 °C
Experimental: To optimize the system composition, similar experiments were carried out on the formation of EG and apiol inclusion complexes with HPCD (Figure S1). […] According to these changes, the dissociation constants of the EG–HPCD and apiol–HPCD complexes (Figure S2) were calculated by Hill’s equation (Table 1). […] The physicochemical parameters of the interaction of APAB and terpenoids (X) with CD were studied by determining the concentration of substances in the aqueous fraction ([APAB] + [APAB-MCD]) according to the calibration dependence (Figure 1C) for systems with a constant amount of the essential oil component X and the concentration gradient MCD (Table 1). Theta (θ) is a fraction of the bound substance X:θ = [X-MCD]/([X-MCD] + [X]) and was calculated based on the dependence of the absorption intensity X on the MCD concentration in the system in the form of a sigmoidal Hill curve with subsequent linearization (Section 3, Section 3.3 and Section 3.4).
The molar excess of CD varied from 0.04 to 10). Further, the complexes were incubated for 1 h at 37 °C and then centrifuged ([…], 15 min, Eppendorf tubes) to separate the insoluble fractions. Complexes were studied by UV and FTIR spectroscopy.
UV spectra of solutions (point 3.3.1) were recorded on the AmerSham Biosciences UltraSpec 2100 pro device (USA) three times in the range of 200–400 nm in a quartz cell Hellma 100–QS with an optical path of 1 cm. Background spectrum (5 mM sodium phosphate buffer (pH 6.2) with 50% EtOH) was subtracted as a blank.
(1) Calculation of the dissociation constants X–MCD and X–HPCD, where X is a “guest” compound, considering the equilibrium: Xaq + n MCDaq ↔ X·nMCDaq, where Kd = [MCDaq]^n · [Xaq]/[X·nMCDaq].
First, fitting of the curves of change of the analytical signal ξ (peak intensity or peak position) versus concentration of the MCD or HPCD or was carried out using the Hill equations: (1) ξ = ξ∞ · [MCD]^n/([MCD]^n + K^n), where ξ∞—horizontal asymptote; (2) ξ = ξ0 + (ξ∞–ξ0) · [MCD]^n/([MCD]^n + K^n). Second, calculation n and Kd values by Hill’s linearization in n-binding site model: lg (θ/(1 – θ)) = n · lg [L] – lg Kd, where θ = |(ξ – ξ0)/(ξ∞ − ξ0)|is a fraction of the bound substance. N in Hill equation—number of drug molecules per CD torus.
Calculations for the following items are performed when [MCD] = 0.01 M.

E. coli = assay: Synergy of adjuvant-MCD with Lev-MCD, growth inhibition zones in agar; format: cell-based, Escherichia coli; details: E. coli; for D, diameter of bacterial inhibition zone surrounding Lev–MCD with APAB-MCD / ϕLev = (D/DLev)^2 / FICI: CLev 0.1 μg/mL; for D, diameter of bacterial inhibition zone surrounding Lev–MCD with APAB-MCD: Lev-MCD + X-MCD (1:2), ±0.5; for ϕLev = (D/DLev)^2: ±0.1; for FICI: ±15%
Experimental: We obtained complex formulations containing adjuvants-MCD and Lev-MCD. These complexes were referred to as enhanced Lev. The synergy effect was studied at a constant concentration of Lev and a variable concentration of an enhancer. […] Based on the D/DLev ratio, the effectiveness of cooperative antibacterial action (ϕ) of the adjuvant and Lev was calculated. The fractional inhibitory concentration (FIC) parameter was introduced: at a fixed Lev concentration, the FIC of adjuvant corresponds to the minimum fractional adjuvant concentration at which the antibacterial effect was still manifest (MICadjuvant in the presence of Lev). The fractional inhibitory concentration index (FICI) characterizes the ratio of the active Lev and adjuvant concentrations to the MIC values of these substances individually: FICI=[Lev]/MIC(Lev)[…][adjuvant]/MIC(adjuvant) (see Section 3).
The FICI was interpreted as: synergism (<0.35), additivity (0.35–0.75), indifference (0.75–1.4), or antagonism (>1.4). FICI is designed to determine the type of Lev interaction with adjuvants.
as §2, with “After 24 h, the diameters of the growth inhibition zones were measured.” left out, “Optical density measurements at 600 nm were taken at various times (0, 3, and 18 h) to determine the number of cells.” left out, “MIC50 and MIC90 are defined as concentrations at which the inhibition of bacterial growth by 50 and 90% is noticeable, respectively.” left out
The FICI was interpreted as: synergism (<0.35), additivity (0.35–0.75), indifference (0.76–1.4), or antagonism (>1.4). The essence of this expression is to calculate the average change in the effective concentration compared to MIC. Note that the most important parameter corresponds to a decrease in MIC of Lev. However, FICI is designed to determine the type of interaction Lev with adjuvants.

B. subtilis (NCIB 8054) [4] = assay: Agar diffusion test, MIC; format: cell-based, Bacillus subtilis; details: B. subtilis; for antibacterial activity of CD complex: up to 3–5 mg/mL concentration; for MIC: agar diffusion test, LB pH 7.2, 37 °C, 20 h
Experimental: as §1, §2

physchem = details: 22 °C, pH 6.2, water
Experimental: as §3

[5] = MCD, cited from earlier work; for EE, %: C(MCD) = 0.01 M
[6] = HPCD, cited from earlier work
E. coli (NCIB 12210) [7] = assay: Broth micro-dilution method, MIC50/MIC90; format: cell-based, Escherichia coli
Experimental: as §1
as §2, with “In other words, the concentration at which the ordinate value (CFU) is equal to 50 or 10% of the control sample minus the background.” left out

B. subtilis (NCIB 8054) [8] = assay: Broth micro-dilution method, MIC50/MIC90; format: cell-based; details: Bacillus subtilis, NCIB8054
Experimental: as §1
The study of the antibacterial effect of Lev and adjuvants was carried out by (a) agar diffusion test and (b) broth micro-dilution method. (a) A measured 500 µL of 100-fold culture dilution was evenly distributed over a solid nutrient medium (LB, pH 7.2) on a Petri dish. […] After 24 h, the diameters of the growth inhibition zones were measured. Minimum inhibitory concentrations (MICs) are determined as the infimum of multiple concentrations of an antimicrobial that inhibits the visible growth of a microorganism after overnight incubation. […] The dependence of CFU (determined by A600) on the concentration of Lev, APAB or terpenoid (briefly X) was approximated according to the Boltzmann equation (Origin software): CFU = (control CFU)/(1 + exp(([X] − MIC50)/constant value)). […]

[9] = Escherichia coli, NCIB12210, broth micro-dilution

| Structure (SMILES) | antibacterial activity of CD complex (E. coli (NCIB 12210) [1]) | EE, % [3] | LC, % [3] | n [3] | decrease of MICLev in the presence of adjuvant (E. coli) | D, diameter of bacterial inhibition zone surrounding Lev–MCD with APAB-MCD (E. coli) | ϕLev = (D/DLev)^2 (E. coli) | FICI (E. coli) | antibacterial activity of CD complex (B. subtilis (NCIB 8054) [4]) | solubility (physchem) | also measured |
| --- | --- | --- | --- | --- | --- | --- | --- | --- | --- | --- | --- |
| C=CCc1cc(OC)c(OC)c(OC)c1OC [Allyltetramethoxybenzene] | inactive | 45 ± 4% | 11 ± 1% | 1.74 ± 0.11 | 1.25–1.5 times | 12 mm | 1.1 | 0.50 | inactive |  | solubility [2]: 160 ± 20 µM |
| C=CCc1cc2c(c(OC)c1OC)OCO2 [Dillapiol] |  | 56 ± 10% | 13 ± 1% | 1.3 ± 0.2 | 1.25–1.5 times | 13.75 mm | 1.3 | 0.04 |  | 240 ± 50 µM (≈ 53.3 µg/mL) |  |
| C[C@H]1COc2c(N3CCN(C)CC3)c(F)cc3c(=O)c(C(=O)O)cn1c23 [Levofloxacin] |  |  |  |  |  |  |  |  |  |  | MIC (E. coli (NCIB 12210) [1]; Escherichia coli, NCIB12210, agar diffusion test, read-out: MIC): 0.1 µg/mL (≈ 0.277 µM); MIC (E. coli (NCIB 12210) [1]; agar diffusion test, listed as Lev): 0.10 µg/mL and 0.10 ± 0.01 µg/mL; EE, % [5]: 99 ± 12%; EE, % ([5]; listed as Lev): more than 90%; LC, % [5]: 28.3 ± 0.4%; EE, % ([6]; 0.01 M): 91 ± 15%; LC, % [6]: 24.1 ± 0.5%; MIC50 (E. coli (NCIB 12210) [7]; [9]): 0.01 ± 0.002 µg/mL (≈ 0.0277 µM); MIC90 (E. coli (NCIB 12210) [7]; [9]): 0.025 ± 0.004 µg/mL (≈ 0.0692 µM); improvement of the effect of Lev by MCD (E. coli (NCIB 12210) [7]; broth micro-dilution test): 30%; MIC50 (B. subtilis (NCIB 8054) [8]): 0.03 ± 0.01 µg/mL (≈ 0.083 µM); MIC90 (B. subtilis (NCIB 8054) [8]): 0.08 ± 0.02 µg/mL (≈ 0.221 µM); MIC (B. subtilis (NCIB 8054) [4]; listed as Lev): 0.45 ± 0.05 µg/mL (≈ 1.25 µM); MIC (B. subtilis (NCIB 8054) [4]; Bacillus subtilis, NCIB8054, read-out: MIC): 0.45 µg/mL (≈ 1.25 µM) |
| C=CC(C)(O)CCC=C(C)C (centres unmarked) [Linalool] | inactive | 80 ± 7% | 10 ± 1% | 1.2 ± 0.2 |  |  |  |  | inactive | 300 ± 50 µM (≈ 46.3 µg/mL) |  |
| C=CCc1cc(OC)c2c(c1)OCO2 [Myristicin] | inactive | 99 ± 5% | 22 ± 2% | 0.67 ± 0.06 | 1.25–1.5 times | 13.25 mm | 1.2 | 0.04 | inactive | 30 ± 7 µM (≈ 5.77 µg/mL) | molar ratio APAB:CD of inclusion complexes [3]: 2 to 1; EE, % ([3]; listed as myristicin): more than 90% |
